Assay results: PubChem BioAssay AID1919007 (Molecular Pharmacology Branch, DTP, NCI, 2023)

System: A498 complex spheroids with HUVEC/MSC, growth
Assay: Anticancer human tumor A498 cell line growth inhibition [AhR];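 further: seven day exposure starting three days after spheroid seeding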;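 on viability, T/C: luminescence signal used as a surrogate for viable cells; luminescence viability scaled so 100% equals DMSO vehicle wells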
Conditions: for IC50: curve of first compound; for viability, T/C: stronger effect = lower value
From the text: Multicellular complex tumor spheroid response to aryl hydrocarbon receptor antagonists in combination with a variety of drugs and investigational agents in selected tumor cell lines
The current study was undertaken to assess response to aryl hydrocarbon receptor antagonists in combination with standard-of-care drugs and investigational agents in solid tumor complex spheroid models. Complex spheroids include a stromal component modeled by human endothelial cells (HUVEC) and fibroblasts modeled by human mesenchymal stem cells (MSCs). The concentration ranges selected for each drug and investigational agent were based upon clinically achievable concentrations if the clinical Cmax of the agent was known.
Compounds. The drugs and investigational agents: BAY 2416964 (NSC825713), GNF351 (NSC835774), CH-223191 (NSC835775), CPI-455 (NSC825282), aza-TdCyd (NSC777586), decitabine (NSC127716), belinostat (NSC758774), entinostat (NSC756642), pevonedistat (NSC761192), tazemetostat (NSC777109), talazoparib (NSC765396), olaparib (NSC753686), selinexor (NSC780203), nedisertib (M3814, NSC802822), bortezomib (NSC756655), venetoclax (NSC766270), doxorubicin (NSC123127), elimusertib (BAY189344, NSC800525), ceralasertib (AZD6738, NSC777638), TAK-243 (NSC785004), alisertib (NSC759677), etoposide (NSC141540), topotecan (NSC609699), eribulin (NSC707389), gemcitabine (NSC613327), carboplatin (NSC241240), cisplatin (NSC119875), and SN-38 (NSC673596) were obtained from the National Cancer Institute (NCI) Developmental Therapeutics Program Chemical Repository (32). The FDA-approved anticancer drug set is available from the Developmental Therapeutics Program at https://dtp.cancer.gov/organization/dscb/obtaining/available plates.htm. […] The stock solutions were prepared in dimethyl sulfoxide (DMSO, Sigma-Aldrich, St. Louis, MO, cat. D2650), except for the platinum compounds which were prepared in saline (Quality Biological, Gaithersburg, MD, cat. 114-055-101), at 800-fold the tested concentration and stored at -70 degrees C prior to their use. All drugs and investigational agents were tested over a range starting from a high concentration at or near the clinical Cmax and decreasing in half-log increments. If the clinical Cmax for an agent had not been determined, the highest concentration tested was 10 microM (Table 1).
Cell Culture. All cells were maintained in an incubator at 37 degrees C and 5% CO2 with 95% humidity. The PDC lines were cultured according to standard operating procedures established by the NCI PDMR (https://pdmr.cancer.gov). Briefly, all PDCs were thawed and cultured in Matrigel-coated flasks prepared with a working solution of 1X Ham's F-12 nutrient mix, without supplementation (Invitrogen, Waltham, MA, cat. 11765054), 100 U/mL penicillin-streptomycin (Invitrogen, cat. 15140122), and 2.5% Matrigel (Corning Inc., Corning, NY, cat. 354248) for the first three passages. All PDCs were cultured in complete DMEM/F-12 media containing advanced DMEM/F-12 (Invitrogen, cat. 12634028), 4.9% defined fetal bovine serum, heat inactivated (HyClone Laboratories Inc., Logan, UT, cat. SH30070.03HI), 389 ng/mL hydrocortisone (Sigma-Aldrich, cat. H4001), 9.7 ng/mL human EGF recombinant protein (Invitrogen, cat. PHG0313), 23.4 microg/mL adenine (Sigma-Aldrich, cat. A2786), 97.3 U/mL penicillin-streptomycin (Invitrogen, cat. 15140122), 1.9 mM L-glutamine (Invitrogen, cat. 25030081), and 9.7 microM Y-27632 dihydrochloride (Tocris Bioscience, Bristol, United Kingdom, cat. 1254). The PDCs were cultured in complete DMEM/F12 media without 10 microM Y-27632 dihydrochloride for at least two passages prior to the screen. The established cell lines NCI-H1341 and […] were cultured in DMEM/F-12, HEPES (Invitrogen, cat. 11330032), 5% defined fetal bovine serum (HyClone Laboratories Inc., cat. SH30070.03), ITS premix universal culture supplement [insulin (5 microg/mL), transferrin (5 microg/mL), and selenious acid (5 ng/mL)] […]

CCc1c2c(nc3ccc(O)cc13)-c1cc3c(c(=O)n1C2)COC(=O)[C@]3(O)CC + CC(CO)NC(=O)c1cc(-c2ccc(Cl)cc2)nn(-c2cnn(C)c2)c1=O
IC50 (second compound 0.1 µM): 19.2 nM
IC50 (second compound 0.316 µM): 16 nM
IC50 (second compound 1 µM): 19 nM
IC50 (second compound 3.16 µM): 16 nM
IC50 (second compound 10 µM): 4.73 nM
viability, T/C (second compound 0.1 µM, first compound 0.000949 µM): 77.1%
viability, T/C (second compound 0.1 µM, first compound 0.003 µM): 77.9%
viability, T/C (second compound 0.1 µM, first compound 0.00949 µM): 61.7%
viability, T/C (second compound 0.1 µM, first compound 0.03 µM): 42.4%
viability, T/C (second compound 0.1 µM, first compound 0.0949 µM): 37.3%
viability, T/C (second compound 0.1 µM, first compound 0.3 µM): 33.1%
viability, T/C (second compound 0.316 µM, first compound 0.000949 µM): 70.8%
viability, T/C (second compound 0.316 µM, first compound 0.003 µM): 70.9%
viability, T/C (second compound 0.316 µM, first compound 0.00949 µM): 57.8%
viability, T/C (second compound 0.316 µM, first compound 0.03 µM): 40.7%
viability, T/C (second compound 0.316 µM, first compound 0.0949 µM): 36.4%
viability, T/C (second compound 0.316 µM, first compound 0.3 µM): 36.7%
viability, T/C (second compound 1 µM, first compound 0.000949 µM): 69.8%
viability, T/C (second compound 1 µM, first compound 0.003 µM): 72.3%
viability, T/C (second compound 1 µM, first compound 0.00949 µM): 62.6%
viability, T/C (second compound 1 µM, first compound 0.03 µM): 41.6%
viability, T/C (second compound 1 µM, first compound 0.0949 µM): 35.5%
viability, T/C (second compound 1 µM, first compound 0.3 µM): 34.1%
viability, T/C (second compound 3.16 µM, first compound 0.000949 µM): 58.8%
viability, T/C (second compound 3.16 µM, first compound 0.003 µM): 63.1%
viability, T/C (second compound 3.16 µM, first compound 0.00949 µM): 58.3%
viability, T/C (second compound 3.16 µM, first compound 0.03 µM): 39.8%
viability, T/C (second compound 3.16 µM, first compound 0.0949 µM): 30.5%
viability, T/C (second compound 3.16 µM, first compound 0.3 µM): 33.8%
viability, T/C (second compound 10 µM, first compound 0.000949 µM): 51.2%
viability, T/C (second compound 10 µM, first compound 0.003 µM): 53.3%
viability, T/C (second compound 10 µM, first compound 0.00949 µM): 46.6%
viability, T/C (second compound 10 µM, first compound 0.03 µM): 36.4%
viability, T/C (second compound 10 µM, first compound 0.0949 µM): 29.3%
viability, T/C (second compound 10 µM, first compound 0.3 µM): 31.8%

Nc1ccn(C2OC(CO)C(O)C2(F)F)c(=O)n1 (stereo not given) + CC(CO)NC(=O)c1cc(-c2ccc(Cl)cc2)nn(-c2cnn(C)c2)c1=O
IC50 (second compound 0.1 µM): < 31.6 nM
IC50 (second compound 0.316 µM): < 31.6 nM
IC50 (second compound 1 µM): < 31.6 nM
IC50 (second compound 3.16 µM): < 31.6 nM
IC50 (second compound 10 µM): < 31.6 nM
viability, T/C (second compound 0.1 µM, first compound 0.0316 µM): 26.1%
viability, T/C (second compound 0.1 µM, first compound 0.1 µM): 25.7%
viability, T/C (second compound 0.1 µM, first compound 0.316 µM): 24.6%
viability, T/C (second compound 0.1 µM, first compound 1 µM): 35.1%
viability, T/C (second compound 0.1 µM, first compound 3.16 µM): 32.8%
viability, T/C (second compound 0.1 µM, first compound 10 µM): 29.9%
viability, T/C (second compound 0.316 µM, first compound 0.0316 µM): 27.5%
viability, T/C (second compound 0.316 µM, first compound 0.1 µM): 25.8%
viability, T/C (second compound 0.316 µM, first compound 0.316 µM): 31%
viability, T/C (second compound 0.316 µM, first compound 1 µM): 32.3%
viability, T/C (second compound 0.316 µM, first compound 3.16 µM): 35%
viability, T/C (second compound 0.316 µM, first compound 10 µM): 28.3%
viability, T/C (second compound 1 µM, first compound 0.0316 µM): 25.6%
viability, T/C (second compound 1 µM, first compound 0.1 µM): 29.8%
viability, T/C (second compound 1 µM, first compound 0.316 µM): 32.1%
viability, T/C (second compound 1 µM, first compound 1 µM): 30.2%
viability, T/C (second compound 1 µM, first compound 3.16 µM): 34.4%
viability, T/C (second compound 1 µM, first compound 10 µM): 29.2%
viability, T/C (second compound 3.16 µM, first compound 0.0316 µM): 27.6%
viability, T/C (second compound 3.16 µM, first compound 0.1 µM): 26.1%
viability, T/C (second compound 3.16 µM, first compound 0.316 µM): 34.2%
viability, T/C (second compound 3.16 µM, first compound 1 µM): 33.7%
viability, T/C (second compound 3.16 µM, first compound 3.16 µM): 29.6%
viability, T/C (second compound 3.16 µM, first compound 10 µM): 27.8%
viability, T/C (second compound 10 µM, first compound 0.0316 µM): 33.2%
viability, T/C (second compound 10 µM, first compound 0.1 µM): 30.1%
viability, T/C (second compound 10 µM, first compound 0.316 µM): 27%
viability, T/C (second compound 10 µM, first compound 1 µM): 29.5%
viability, T/C (second compound 10 µM, first compound 3.16 µM): 27.5%
viability, T/C (second compound 10 µM, first compound 10 µM): 24.1%
